Where only a bound is given, the exact number is not on record here.

This test deals with HCV genotype 1b replicon. Description: HCV replicon assay (HCV 1b_Huh-Luc/Neo-ET cell line, luciferase readout). The test is classed as cell-based. Conditions: Hepatitis C virus; bicistronic genotype 1b replicon in Huh 7 cells, 72 h incubation, luciferase enzyme activity; read-out: Inhibition of HCV genotype 1b. How it is done:
Biological activity of the compounds of the invention was determined using an HCV replicon assay. The HCV 1b_Huh-Luc/Neo-ET cell line persistently expressing a bicistronic genotype 1b replicon in Huh 7 cells was obtained from ReBLikon GMBH. This cell line was used to test compound inhibition using luciferase enzyme activity readout as a measurement of compound inhibition of replicon levels.
On Day 1 (the day after plating cells), each compound is added in triplicate to the cells. Plates are incubated for 72 h prior to determining luciferase levels. Enzyme activity was measured using a Bright-Glo Kit (cat. number E2620) manufactured by Promega Corporation. The following equation was used to generate a percent control value for each compound.
% Control=(Average Compound Value/Average Control)*100
The EC50 value was determined using GraphPad Prism and the following equation:
Y=Bottom+(Top−Bottom)/(1+10̂((LogIC50−X)*HillSlope))
EC50 values of compounds are determined several times in the replicon assay. […]
For `COC(=O)N[C@H](C(=O)N1CCC[C@H]1c1nc2c([nH]1)-c1ccc(-c3ccc(NC(=O)[C@@H]4CCCN4C(=O)[C@H](NC(=O)OC)c4ccccc4)cc3)cc1CC2)C(C)C` [Compound 117], the EC50 was below 1 nM.
For `O=C(NC[C@@H]1CCCN1C(=O)[C@H](NC(=O)C1CC1)c1ccccc1)c1ccc(-c2ccc(-c3cnc([C@@H]4CCCN4C(=O)[C@H](NC(=O)C4CC4)c4ccccc4)[nH]3)cc2)cc1` [Compound 55], the EC50 was below 1 nM.
The same measure for `O=C(NC[C@@H]1CCCN1C(=O)[C@H](NC(=O)N1CCOCC1)c1ccccc1)c1ccc(-c2ccc(-c3cnc([C@@H]4CCCN4C(=O)[C@H](NC(=O)N4CCOCC4)c4ccccc4)[nH]3)cc2)cc1` [Compound 56]: below 1 nM.
Take `CC(C)(C)OC(=O)N[C@@H](C(=O)N1CCC[C@H]1c1ncc(-c2ccc(Sc3ccc(-c4cnc([C@@H]5CCCN5C(=O)[C@H](NC(=O)OC(C)(C)C)c5ccccc5)[nH]4)cc3)cc2)[nH]1)c1ccccc1` [Compound 46]: the EC50 is below 1 nM.
For the compound `CC(C)(C)OC(=O)N[C@@H](C(=O)N1CCC[C@H]1C(=O)Nc1ccc(-c2ccc(-c3cnc([C@@H]4COCCN4C(=O)[C@H](NC(=O)OC(C)(C)C)c4ccccc4)[nH]3)cc2)cc1)c1ccccc1` [Compound 8], the EC50 is below 1 nM.
As for `COC(=O)N[C@H](C(=O)N1CCC[C@H]1C(=O)NCc1ccc(-c2ccc(-c3cnc([C@@H]4CCCN4C(=O)[C@@H](NC(=O)OC)C(C)C)[nH]3)cc2)cc1)C(C)C` [Compound 105], the EC50 was in the range of 10 to 999 nM.
For the compound `CC(C)(C)OC(=O)N[C@@H](C(=O)N1CCC[C@H]1c1ncc(-c2ccc(Oc3ccc(-c4cnc([C@@H]5CCCN5C(=O)[C@H](NC(=O)OC(C)(C)C)c5ccccc5)[nH]4)cc3)cc2)[nH]1)c1ccccc1` [Compound 52], the EC50 was below 1 nM.
For `O=C(N[C@@H](C(=O)N1CCC[C@H]1COc1ccc(-c2ccc(-c3cnc([C@@H]4CCCN4C(=O)[C@H](NC(=O)N4CCOCC4)c4ccccc4)[nH]3)cc2)cc1)c1ccccc1)N1CCOCC1` [Compound 32], the EC50 was below 1 nM.
Then `COC(=O)N[C@H](C(=O)N1CCC[C@H]1C(=O)Nc1ccc(-c2ccc(-c3cnc([C@@H]4CCCN4C(=O)[C@@H](NC(=O)OC)C4CCOCC4)[nH]3)cc2)cc1)C1CCOCC1` [Compound 110], with 1 to 9.9 nM; and `COC(=O)N[C@H](C(=O)N1CCC[C@H]1C(=O)NCc1ccc(-c2ccc3cc(-c4cnc([C@@H]5CCCN5C(=O)[C@@H](NC(=O)OC)C(C)C)[nH]4)ccc3n2)cc1)C(C)C` [Compound 86], with 1 to 9.9 nM.
For `COC(=O)N[C@H](C(=O)N1CCC[C@H]1C(=O)Nc1ccc(-c2ccc3c(ccc4nc([C@@H]5CCCN5C(=O)[C@@H](NC(=O)OC)C(C)C)[nH]c43)c2)cc1)C(C)C` [Compound 114], the EC50 was below 1 nM.
Regarding `COC(=O)N[C@@H](C(=O)N1CCC[C@H]1c1ncc(-c2ccc(-c3ccc(C(=O)NC[C@@H]4CCCN4C(=O)[C@H](NC(=O)N4CCN(C)CC4)c4ccccc4)cc3)cc2)[nH]1)c1ccccc1` [Compound 66], the EC50 is below 1 nM.
In the case of `CC(C)(C)OC(=O)N[C@@H](C(=O)N1CCOC[C@H]1C(=O)Nc1ccc(-c2ccc(-c3cnc([C@@H]4CCCN4C(=O)[C@H](NC(=O)OC(C)(C)C)c4ccccc4)[nH]3)cc2)cc1)c1ccccc1` [Compound 21], the EC50 is below 1 nM.
Then `O=C(N[C@@H](C(=O)N1CCC[C@H]1c1ncc(-c2ccc(Sc3ccc(-c4cnc([C@@H]5CCCN5C(=O)[C@H](NC(=O)N5CCOCC5)c5ccccc5)[nH]4)cc3)cc2)[nH]1)c1ccccc1)N1CCOCC1` [Compound 51], with below 1 nM; and `COC(=O)N[C@H](C(=O)N1CCC[C@H]1C(=O)N[C@@H](C)c1ccc(-c2ccc(-c3cnc([C@@H]4CCCN4C(=O)[C@@H](NC(=O)OC)C(C)C)[nH]3)cc2)cc1)C(C)C` [Compound 95], with below 1 nM; and `COC(=O)N[C@@H](C(=O)N1CCC[C@H]1C(=O)Nc1ccc(-c2ccc(-c3cnc([C@@H]4CCCN4C(=O)[C@H](NC(=O)OC)c4ccccc4)[nH]3)cn2)cc1)c1ccccc1` [Compound 72], with below 1 nM.
Regarding `COC(=O)N[C@H](C(=O)N1CCC[C@H]1C(=O)NCc1ccc(-c2ccc3nc([C@@H]4CCCN4C(=O)[C@@H](NC(=O)OC)C(C)C)[nH]c3c2)cc1)C(C)C` [Compound 87], the EC50 is 1 to 9.9 nM.
For the compound `CC(C)[C@@H](NC(=O)OC(C)(C)C)C(=O)N1CCOC[C@H]1C(=O)Nc1ccc(-c2ccc(-c3cnc([C@@H]4COCCN4C(=O)[C@H](NC(=O)OC(C)(C)C)C(C)C)[nH]3)cc2)cc1` [Compound 18], the EC50 lay in the range of 10 to 999 nM.
Then `O=C(N[C@@H](C(=O)N1CCC[C@H]1C(=O)NCc1ccc(-c2ccc(-c3cnc([C@@H]4CCCN4C(=O)[C@H](NC(=O)C4CC4)c4ccccc4)[nH]3)cc2)cc1)c1ccccc1)C1CC1` [Compound 43], with below 1 nM; and `COC(=O)N[C@@H](C(=O)N1CCC[C@H]1C(=O)Nc1ccc(-c2ccc(-c3cnc([C@@H]4CCCN4C(=O)[C@@H](c4ccccc4)N(C)C)[nH]3)cc2)cc1)c1ccccc1` [Compound 59], with below 1 nM; and `COC(=O)N[C@H](C(=O)N1CCC[C@H]1C(=O)NCc1ccc(-c2ccc(-c3cnc([C@@H]4CCCN4C(=O)[C@@H](NC(=O)OC)C(C)C)[nH]3)cn2)cc1)C(C)C` [Compound 116], with 10 to 999 nM.
Turning to `COC(=O)N[C@@H](C(=O)N1CCC[C@H]1C(=O)NCc1ccc(-c2ccc(-c3cnc([C@@H]4CCCN4C(=O)[C@H](NC(=O)OC)c4ccccc4)[nH]3)cn2)cc1)c1ccccc1` [Compound 118], the EC50 was below 1 nM.
The same measure for `COC(=O)N[C@@H](C(=O)N1CCC[C@H]1CNC(=O)c1ccc(-c2ccc(-c3cnc([C@@H]4CCCN4C(=O)[C@@H](c4ccccc4)N4CCCCC4)[nH]3)cc2)cc1)c1ccccc1` [Compound 61]: below 1 nM; for `O=C(NCc1ccc(-c2ccc(-c3cnc([C@@H]4CCCN4C(=O)[C@H](NC(=O)N4CCOCC4)c4ccccc4)[nH]3)cc2)cc1)[C@@H]1CCCN1C(=O)[C@H](NC(=O)N1CCOCC1)c1ccccc1` [Compound 44]: 1 to 9.9 nM.
`COC(=O)N[C@H](C(=O)N1CCC[C@H]1C(=O)N[C@@H](C)c1ccc(-c2ccc(-c3cnc([C@@H]4CCCN4C(=O)[C@@H](NC(=O)OC)C4CCOCC4)[nH]3)cc2)cc1)C1CCOCC1` [Compound 101]: the EC50 lay in the range of 1 to 9.9 nM.
Then `COC(=O)N[C@H](C(=O)N1CCC[C@H]1CNC(=O)c1ccc(-c2ccc(-c3cnc([C@@H]4CCCN4C(=O)[C@@H](NC(=O)OC)C(C)C)[nH]3)nc2)cc1)C(C)C` [Compound 90], with 1 to 9.9 nM; and `COC(=O)N[C@H](C(=O)N1CCC[C@H]1CNC(=O)c1ccc(-c2ccc(-c3cnc([C@@H]4CCCN4C(=O)[C@@H](NC(=O)OC)C(C)C)[nH]3)cn2)cc1)C(C)C` [Compound 78], with below 1 nM; and `CC(C)(C)OC(=O)N[C@@H](C(=O)N1CCOC[C@H]1C(=O)Nc1ccc(-c2ccc(-c3cnc([C@@H]4COCCN4C(=O)[C@H](NC(=O)OC(C)(C)C)c4ccccc4)[nH]3)cc2)cc1)c1ccccc1` [Compound 16], with below 1 nM.
The same measure for `COC(=O)N[C@H](C(=O)N1CCC[C@H]1c1nc2c([nH]1)-c1ccc(-c3ccc(C(=O)NC[C@@H]4CCCN4C(=O)[C@H](NC(=O)OC)c4ccccc4)cc3)cc1CC2)C(C)C` [Compound 85]: below 1 nM.
Then `CN1CCN(C(=O)N[C@@H](C(=O)N2CCC[C@H]2CNC(=O)c2ccc(-c3ccc(-c4cnc([C@@H]5CCCN5C(=O)[C@H](NC(=O)N5CCN(C)CC5)c5ccccc5)[nH]4)cc3)cc2)c2ccccc2)CC1` [Compound 57], with 1 to 9.9 nM; and `COC(=O)N[C@H](C(=O)N1CCC[C@H]1C(=O)Nc1ccc(-c2ccc(-c3cnc([C@@H]4CCCN4C(=O)[C@@H](NC(=O)OC)C(C)C)[nH]3)cn2)cc1)C(C)C` [Compound 71], with 1 to 9.9 nM; and `COC(=O)N[C@@H](C(=O)N1CCC[C@H]1c1ncc(-c2ccc(-c3ccc(C(=O)NC[C@@H]4CCCN4C(=O)[C@@H](c4ccccc4)N4CCOCC4)cc3)cc2)[nH]1)c1ccccc1` [Compound 63], with below 1 nM.
`C[C@@H](NC(=O)OC(C)(C)C)C(=O)N1CCC[C@H]1c1ncc(-c2ccc(Oc3ccc(-c4cnc([C@@H]5CCCN5C(=O)[C@@H](C)NC(=O)OC(C)(C)C)[nH]4)cc3)cc2)[nH]1` [Compound 47]: the EC50 was 1 to 9.9 nM.
As to `C#CC[C@H](NC(=O)OC)C(=O)N1CCC[C@H]1C(=O)NCc1ccc(-c2ccc(-c3cnc([C@@H]4CCCN4C(=O)[C@H](CC#C)NC(=O)OC)[nH]3)cc2)cc1` [Compound 81], the EC50 was in the range of 10 to 999 nM.
Take `COC(=O)N[C@@H](C(=O)N[C@@H](C)c1ncc(-c2ccc(-c3ccc(C(=O)NC[C@@H]4CCCN4C(=O)[C@H](NC(=O)OC)c4ccccc4)nc3)cc2)[nH]1)c1ccccc1` [Compound 93]: the EC50 was below 1 nM.
As to `COC(=O)N[C@H](C(=O)N1CCC[C@H]1CNC(=O)c1ccc(-c2ccc3c(ccc4nc([C@@H]5CCCN5C(=O)[C@@H](NC(=O)OC)C(C)C)[nH]c43)c2)cc1)C(C)C` [Compound 113], the EC50 is below 1 nM.
The same measure for `C[C@@H](NC(=O)OC(C)(C)C)C(=O)N1CCOC[C@H]1C(=O)Nc1ccc(-c2ccc(-c3cnc([C@@H]4CCCN4C(=O)[C@@H](C)NC(=O)OC(C)(C)C)[nH]3)cc2)cc1` [Compound 12]: 10 to 999 nM.
Then `COC(=O)N[C@H](C(=O)N1CCC[C@H]1c1ncc(-c2ccc(Oc3cccc(-c4cnc([C@@H]5CCCN5C(=O)[C@@H](NC(=O)OC)C(C)C)[nH]4)c3)cc2)[nH]1)C(C)C` [Compound 70], with below 1 nM.

The values are drawn from patent publication US20120040977A1, “INHIBITORS OF HCV NS5A” (PRESIDIO PHARMACEUTICALS, INC., priority 2009, published 2012).
